In EP3556362A1, “STING INHIBITORS” (ECOLE POLYTECHNIQUE FEDERALE DE LAUSANNE (EPFL), priority 2018, dated 2019):

Legend:
[1] = target: T1, TBK1 (Homo sapiens, UniProt Q9UHD2); assay: IFN-β luciferase reporter assay in HEK293T cells, TBK1 driven; conditions: 0.31-2.5µM, 16 h (Figure 2)
T1 sequence (Q9UHD2 1-729): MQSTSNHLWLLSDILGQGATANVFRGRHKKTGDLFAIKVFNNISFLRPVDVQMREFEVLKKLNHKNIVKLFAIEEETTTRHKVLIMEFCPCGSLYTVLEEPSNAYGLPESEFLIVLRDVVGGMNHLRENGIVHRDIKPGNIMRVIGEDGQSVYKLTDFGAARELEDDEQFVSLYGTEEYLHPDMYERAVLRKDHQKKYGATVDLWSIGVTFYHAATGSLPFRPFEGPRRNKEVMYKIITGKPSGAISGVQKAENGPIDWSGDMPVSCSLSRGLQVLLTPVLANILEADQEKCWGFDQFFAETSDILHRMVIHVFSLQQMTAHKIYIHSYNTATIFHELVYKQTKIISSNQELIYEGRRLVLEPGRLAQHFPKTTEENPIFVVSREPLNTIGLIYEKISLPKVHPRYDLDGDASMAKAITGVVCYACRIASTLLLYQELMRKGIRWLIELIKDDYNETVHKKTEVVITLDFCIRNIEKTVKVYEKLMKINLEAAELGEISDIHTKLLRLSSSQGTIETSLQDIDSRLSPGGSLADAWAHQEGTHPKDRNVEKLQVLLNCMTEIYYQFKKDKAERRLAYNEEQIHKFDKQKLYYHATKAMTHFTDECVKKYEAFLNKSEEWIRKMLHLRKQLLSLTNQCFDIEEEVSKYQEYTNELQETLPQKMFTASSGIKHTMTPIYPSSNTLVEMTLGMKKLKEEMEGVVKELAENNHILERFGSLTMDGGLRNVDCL

[2] = target: T2, RIG-I (Homo sapiens, UniProt O95786); assay: IFN-β luciferase reporter assay in HEK293T cells, RIG-I driven (counter-screen and validation)
T2 sequence (O95786 1-925): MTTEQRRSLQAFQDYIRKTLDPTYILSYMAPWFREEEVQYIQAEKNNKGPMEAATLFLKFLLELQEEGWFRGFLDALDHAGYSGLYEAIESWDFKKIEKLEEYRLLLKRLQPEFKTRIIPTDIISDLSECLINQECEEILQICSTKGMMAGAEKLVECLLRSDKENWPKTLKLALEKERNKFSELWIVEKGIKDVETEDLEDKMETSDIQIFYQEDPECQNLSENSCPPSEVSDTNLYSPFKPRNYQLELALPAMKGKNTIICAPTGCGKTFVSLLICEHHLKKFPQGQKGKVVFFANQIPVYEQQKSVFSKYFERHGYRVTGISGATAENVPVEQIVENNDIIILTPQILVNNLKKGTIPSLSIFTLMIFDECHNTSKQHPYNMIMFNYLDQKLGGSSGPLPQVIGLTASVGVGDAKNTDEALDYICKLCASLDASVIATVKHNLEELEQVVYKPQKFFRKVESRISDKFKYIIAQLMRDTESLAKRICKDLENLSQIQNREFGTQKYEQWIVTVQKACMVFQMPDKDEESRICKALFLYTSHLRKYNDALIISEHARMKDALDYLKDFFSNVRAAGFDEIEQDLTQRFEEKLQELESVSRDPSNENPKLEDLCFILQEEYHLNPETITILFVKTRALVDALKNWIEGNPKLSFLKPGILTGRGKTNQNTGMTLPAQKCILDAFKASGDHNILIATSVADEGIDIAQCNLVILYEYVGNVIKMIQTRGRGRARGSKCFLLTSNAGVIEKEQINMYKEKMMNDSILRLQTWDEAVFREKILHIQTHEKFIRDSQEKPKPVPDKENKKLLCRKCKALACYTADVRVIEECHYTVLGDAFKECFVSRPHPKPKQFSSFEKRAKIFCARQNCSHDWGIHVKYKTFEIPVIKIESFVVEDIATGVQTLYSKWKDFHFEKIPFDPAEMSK

CCc1ccc(NC(=O)Nc2c[nH]c3ccccc23)cc1 [F2740-0151, 1-(4-ethylphenyl)-3-(1H-indol-3-yl)urea]
TBK1-mediated type I IFN induction [1]: failed to suppress
RIG-I-mediated type I IFN induction ([2]; 0.31-2.5µM, 16 h (Figure 2)): failed to suppress
RIG-I driven activation of the IFN-β reporter ([2]; counter-screen of hits from the primary screen): but not RIG-I-dependent type I IFN induction
